ChEMBL document CHEMBL1201862, “PubChem BioAssay data set” (2004)
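96-well plates; 48 h exposure; 5 concentrations. Endpoints by linear interpolation between flanking doses. Not reached: highest tested concentration assigned. GI50: concentration for 50% inhibition of growth.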 Active and inactive are the calls of the source. Rule as the data show it: active = GI50 up to about 1.1 µM and inactive = higher.

How the values were obtained:
Assay in all cases: DTP human tumour cell line panel, 48 h
[1] = test system: MDA-MB-231
[2] = test system: HCC 2998
[3] = test system: UACC-257
[4] = test system: Malme-3M
[5] = test system: SF-539
[6] = test system: OVCAR-5
[7] = test system: HCT-116
[8] = test system: MCF7
[9] = test system: SK-MEL-28
[10] = test system: U-251
[11] = test system: LOX IMVI
[12] = test system: SK-MEL-2
[13] = test system: RPMI-8226
[14] = test system: SK-OV-3
[15] = test system: NCI-H522
[16] = test system: KM12
[17] = test system: TK-10
[18] = test system: A549
[19] = test system: A498

Row | SMILES | GI50 [1] | GI50 [2] | GI50 [3] | GI50 [4] | GI50 [5] | GI50 [6] | GI50 [7] | GI50 [8] | GI50 [9] | GI50 [10] | GI50 [11] | GI50 [12] | GI50 [13] | GI50 [14] | GI50 [15] | GI50 [16] | GI50 [17] | GI50 [18] | GI50 [19]
1 | CN(C)c1cccc(F)c1C(=O)NC(=O)Nc1ccc(Cl)cc1 | 14.8 µM (inactive) | 1.4 µM (inactive) | 3.42 µM (inactive) | 1.76 µM (inactive) | 3.15 µM (inactive) | 8.09 µM (inactive) | 1.77 µM (inactive) | 2.17 µM (inactive) | 17.6 µM (inactive) | 3.69 µM (inactive) | 3.01 µM (inactive) | 2.29 µM (inactive) | 1.81 µM (inactive) | 3.75 µM (inactive) | 2.27 µM (inactive) | 2.92 µM (inactive) | > 100 µM (inactive) | 5.48 µM (inactive) | 11.5 µM (inactive)
2 | CC1(C)CC2=NOS3=C2C(=NO3)C1c1ccccn1 (stereo not given) | > 100 µM (inactive) | > 100 µM (inactive) | 28.9 µM (inactive) | 46.9 µM (inactive) | 64 µM (inactive) | > 100 µM (inactive) | 48.8 µM (inactive) | > 100 µM (inactive) | > 100 µM (inactive) | > 100 µM (inactive) | 36.1 µM (inactive) | > 100 µM (inactive) | > 100 µM (inactive) | > 100 µM (inactive) | 38.5 µM (inactive) | 61.2 µM (inactive) | > 100 µM (inactive) | 83.2 µM (inactive) | > 100 µM (inactive)
3 | C/C=C\C(CC(=O)NCCc1cn(C(=O)OCc2ccccc2)c2ccccc12)CC(=O)OC (stereo not given) | > 100 µM (inactive) | > 100 µM (inactive) | 52.8 µM (inactive) | > 100 µM (inactive) |  | > 100 µM (inactive) | 91.4 µM (inactive) | 46.6 µM (inactive) | > 100 µM (inactive) | > 100 µM (inactive) |  | > 100 µM (inactive) | 58.7 µM (inactive) | > 100 µM (inactive) | 48.8 µM (inactive) | 62.5 µM (inactive) | > 100 µM (inactive) | 50.5 µM (inactive) | > 100 µM (inactive)
4 | COc1c(O)c(O)c2c(c1O)C(=O)c1cc(C)cc(O)c1C2=O | 12.2 µM (inactive) | 75.2 µM (inactive) | 48.3 µM (inactive) | 8.91 µM (inactive) | > 66.5 µM (inactive) | 43 µM (inactive) | 32.8 µM (inactive) | 44.8 µM (inactive) | 98.6 µM (inactive) | 50.4 µM (inactive) | 24.1 µM (inactive) | > 100 µM (inactive) | 35.2 µM (inactive) | 36.8 µM (inactive) | 6.07 µM (inactive) | 35.2 µM (inactive) | 49.3 µM (inactive) | 45.9 µM (inactive) | 49.2 µM (inactive)
5 | COC1C=C(NCC2(CO)CCC2)N=C(N)N1 (stereo not given) | 56.6 µM (inactive) | > 100 µM (inactive) | > 100 µM (inactive) | > 100 µM (inactive) |  | > 100 µM (inactive) | > 100 µM (inactive) | 95.1 µM (inactive) | > 100 µM (inactive) | > 100 µM (inactive) | > 100 µM (inactive) | > 100 µM (inactive) | > 100 µM (inactive) | > 100 µM (inactive) | > 100 µM (inactive) | > 100 µM (inactive) |  | > 100 µM (inactive) | 95.1 µM (inactive)
6 | Cc1ccccc1-n1c(=O)c2ncn(C3CCCO3)c2n(-c2ccccc2C)c1=S (stereo not given) | > 100 µM (inactive) | > 100 µM (inactive) | > 100 µM (inactive) | > 100 µM (inactive) | > 100 µM (inactive) | > 100 µM (inactive) | > 100 µM (inactive) | > 100 µM (inactive) |  |  | > 100 µM (inactive) | > 100 µM (inactive) | > 100 µM (inactive) | > 100 µM (inactive) | > 100 µM (inactive) | > 100 µM (inactive) | > 100 µM (inactive) | > 100 µM (inactive) | > 100 µM (inactive)
7 | Cn1c2c3c(F)c(F)ccc3nc-2cc2ccccc21 | 3.3 µM (inactive) | 1.32 µM (inactive) | 3.83 µM (inactive) | 2.7 µM (inactive) | 2.06 µM (inactive) | 1.92 µM (inactive) | 0.125 µM (active) | 0.431 µM (active) | 4.17 µM (inactive) | 1.58 µM (inactive) | 1.07 µM (active) | 3.27 µM (inactive) | 0.711 µM (active) | 5.57 µM (inactive) | 3.03 µM (inactive) | 0.927 µM (active) | 0.828 µM (active) | 2.34 µM (inactive) | 0.443 µM (active)
8 | CO/N=C(/C(=O)OC)c1ccccc1COc1ccccc1C(F)(F)F | 80.9 µM (inactive) | 27.9 µM (inactive) | 16 µM (inactive) | 11.6 µM (inactive) | 20.3 µM (inactive) | > 100 µM (inactive) | 25.1 µM (inactive) | 39.4 µM (inactive) | 37.8 µM (inactive) | 31.6 µM (inactive) |  | 20.8 µM (inactive) | 14.4 µM (inactive) | 16.6 µM (inactive) | 14.7 µM (inactive) | 30.2 µM (inactive) | 54.5 µM (inactive) | 21.7 µM (inactive) | 39.7 µM (inactive)
9 | O=P12N(CCN1c1ccccc1)CCN2c1ccccc1 | > 100 µM (inactive) | > 100 µM (inactive) | > 100 µM (inactive) | > 100 µM (inactive) | > 100 µM (inactive) | > 100 µM (inactive) | > 100 µM (inactive) | > 100 µM (inactive) | > 100 µM (inactive) | > 100 µM (inactive) | > 100 µM (inactive) | > 100 µM (inactive) | > 100 µM (inactive) | > 100 µM (inactive) | 84.1 µM (inactive) | > 100 µM (inactive) | > 100 µM (inactive) | > 100 µM (inactive) | > 100 µM (inactive)
10 | CN(C)CC1CCCc2ccccc2C1=O (stereo not given) | 5.07 µM (inactive) | 6.31 µM (inactive) | 6.1 µM (inactive) | 1.77 µM (inactive) | 4.79 µM (inactive) | 17.5 µM (inactive) | 1.85 µM (inactive) | 0.231 µM (active) | 6.03 µM (inactive) | 1.6 µM (inactive) | 2.16 µM (inactive) | 2.02 µM (inactive) | 0.0267 µM (active) | 18.3 µM (inactive) | 0.16 µM (active) | 1.98 µM (inactive) | 3.83 µM (inactive) | 20.3 µM (inactive) | 19.5 µM (inactive)
11 | O=C(Nc1ccccc1)N1N=C(c2ccccc2)C1c1ccccc1 (stereo not given) | 62.1 µM (inactive) | 31.3 µM (inactive) | 31.8 µM (inactive) | 30.5 µM (inactive) | 14.9 µM (inactive) | 23.2 µM (inactive) | 17.9 µM (inactive) | 20.2 µM (inactive) | 53.7 µM (inactive) | 36.2 µM (inactive) | 29.9 µM (inactive) |  | 14 µM (inactive) | 90.8 µM (inactive) | 19.9 µM (inactive) | 29.9 µM (inactive) | 36.1 µM (inactive) | 25.3 µM (inactive) | 18.5 µM (inactive)
12 | O=C(c1ccccc1)c1ccc(-n2c3ccccc3c3ccc4c(c32)C(=O)C=CC4=O)cc1 | 8.24 µM (inactive) | 11.2 µM (inactive) | 12.7 µM (inactive) |  | 10.4 µM (inactive) | 18.7 µM (inactive) | 5.2 µM (inactive) | 3.21 µM (inactive) | 8.83 µM (inactive) | 14.7 µM (inactive) | 3.41 µM (inactive) | 19.3 µM (inactive) | 6.17 µM (inactive) | 20.9 µM (inactive) | 3.43 µM (inactive) | 17.5 µM (inactive) | 12.7 µM (inactive) | 18.5 µM (inactive) | 12.2 µM (inactive)
13 | Nc1c(S(=O)(=O)O)cc(Nc2cccc(S(=O)(=O)/C=C/S(=O)(=O)O)c2)c2c1C(=O)c1ccccc1C2=O | > 100 µM (inactive) | > 100 µM (inactive) | > 100 µM (inactive) | > 100 µM (inactive) | > 100 µM (inactive) | > 100 µM (inactive) | > 100 µM (inactive) | > 100 µM (inactive) | > 100 µM (inactive) | > 100 µM (inactive) | > 100 µM (inactive) | > 100 µM (inactive) | > 100 µM (inactive) | > 100 µM (inactive) | > 100 µM (inactive) | > 100 µM (inactive) | > 100 µM (inactive) | > 100 µM (inactive) | > 100 µM (inactive)
14 | C=C1C(NC)CCC23CC24CCC2(C)C(C(C)=O)C(O)CC2(C)C4CCC13 (stereo not given) | > 100 µM (inactive) | > 100 µM (inactive) | > 100 µM (inactive) | > 100 µM (inactive) | 59 µM (inactive) | > 100 µM (inactive) | 70.3 µM (inactive) | 70.5 µM (inactive) | > 100 µM (inactive) | > 100 µM (inactive) | 63.7 µM (inactive) | > 100 µM (inactive) | 45 µM (inactive) | 59.7 µM (inactive) | 84.9 µM (inactive) | 56.1 µM (inactive) | > 100 µM (inactive) | > 100 µM (inactive) | > 100 µM (inactive)
15 | Cc1ccc2nc3sc(=O)sc3nc2c1 [CHINOMETHIONAT] | 17.3 µM (inactive) | 16.2 µM (inactive) | 16.9 µM (inactive) |  | 18.7 µM (inactive) | 16.7 µM (inactive) | 17.2 µM (inactive) | 17.6 µM (inactive) | 17.9 µM (inactive) | 17.1 µM (inactive) | 15 µM (inactive) | 14.4 µM (inactive) | 19.5 µM (inactive) | 19.6 µM (inactive) | 17.5 µM (inactive) | 15.6 µM (inactive) | 16.4 µM (inactive) | 16.1 µM (inactive) | 7.48 µM (inactive)
